The source made the active and inactive calls. The calls are words filed in the database; no cut-off is given here.
How the values were obtained:
MCF7 [1] = experiment: Inhibition of mammospheres formation in human MCF7 cells incubated for 10 days; assay type: functional, cell-based
MCF7 [2] = experiment: Inhibition of RhoGEF in human MCF7 cells derived mammospheres assessed as inhibition of RhoA-mediated phospho-MLC formation at 2.5 uM in presence of 2.5 uM Rhosin/G04 incubated for 24 hrs by densitometry; assay type: cell-based
MCF7 [3] = experiment: Inhibition of RhoGEF in human MCF7 cells derived mammospheres assessed as inhibition of 10% calf serum-induced RhoA-GTP formation at 2.5 uM in presence of 2.5 uM Rhosin/G04 incubated for 24 hrs by densitometry relative to control; assay type: cell-based
MCF7 [4] = experiment: Inhibition of RhoGEF in human MCF7 cells derived mammospheres assessed as inhibition of RhoA-mediated phospho-MLC formation incubated for 24 hrs by densitometry; assay type: cell-based
MCF7 [5] = experiment: Inhibition of RhoGEF in human MCF7 cells derived mammospheres assessed as inhibition of 10% calf serum-induced RhoA-GTP formation by measuring relative RhoA-GTP level at 2.5 uM in presence of 2.5 uM Rhosin/G04 incubated for 24 hrs by densitometry (reference value: 1); assay type: cell-based
MCF7 [6] = experiment: Inhibition of RhoGEF in human MCF7 cells derived mammospheres assessed as inhibition of 10% calf serum-induced RhoA-GTP formation by measuring relative RhoA-GTP level at 30 uM incubated for 24 hrs by densitometry (reference value: 1); assay type: cell-based
MCF7 [7] = experiment: Growth inhibition of human MCF7 cells at 5 to 50 uM; assay type: functional, cell-based
Mus musculus [8] = organism: Mus musculus; experiment: Inhibition of RhoGEF in mouse NIH/3T3 cells assessed as inhibition of 10% calf serum-induced Rac1-GTP formation by measuring relative Rac1-GTP level at 50 uM in presence of 50 uM Rhosin/G04 incubated for 24 hrs by densitometry (reference value: 1); assay type: cell-based
Mus musculus [9] = organism: Mus musculus; experiment: Inhibition of RhoGEF in mouse NIH/3T3 cells assessed as inhibition of 10% calf serum-induced Cdc42-GTP formation by measuring relative Cdc42-GTP level at 50 uM incubated for 24 hrs by densitometry (reference value: 1); assay type: cell-based
Mus musculus [10] = organism: Mus musculus; experiment: Inhibition of RhoGEF in mouse NIH/3T3 cells assessed as inhibition of 10% calf serum-induced RhoA-GTP formation by measuring relative RhoA-GTP level at 5 uM in presence of 5 uM Rhosin/G04 incubated for 24 hrs by densitometry (reference value: 1); assay type: cell-based
Mus musculus [11] = organism: Mus musculus; experiment: Inhibition of RhoGEF in mouse NIH/3T3 cells assessed as inhibition of 10% calf serum-induced RhoA-GTP formation by measuring relative RhoA-GTP level at 50 uM incubated for 24 hrs by densitometry (reference value: 1); assay type: cell-based
Mus musculus [12] = organism: Mus musculus; experiment: Inhibition of RhoGEF in mouse NIH/3T3 cells assessed as inhibition of 10% calf serum-induced RhoA-GTP formation by measuring relative RhoA-GTP level at 30 uM incubated for 24 hrs by densitometry (reference value: 1); assay type: cell-based
[13] = target: RhoGEF 1/Transforming protein RhoA (Homo sapiens) (UniProt P61586+Q92888); experiment: Binding affinity to human LARG (765 to 1138 residues) DH-PH module expressed in mouse NIH/3T3 cells assessed as reduction in LARG binding to human full length RhoA (1 to 193 residues) by measuring relative LARG binding level at 30 uM pull-down assay (reference value: 1 No unit); assay type: cell-based
Mus musculus [14] = organism: Mus musculus; experiment: Inhibition of RhoGEF in mouse NIH/3T3 cells assessed as reduction in 10% calf serum-induced rhoA-mediated actin stress fiber formation at 10 uM by rhodamine-phalloidin staining based assay; assay type: cell-based
Mus musculus [15] = organism: Mus musculus; experiment: Inhibition of RhoGEF in mouse NIH/3T3 cells assessed as reduction in 10% calf serum-induced rhoA-mediated actin stress fiber formation at 2.5 uM in presence of 2.5 uM Rhosin/G04 by rhodamine-phalloidin staining based assay; assay type: cell-based
Mus musculus [16] = organism: Mus musculus; experiment: Inhibition of RhoGEF in mouse NIH/3T3 cells assessed as inhibition of 10% calf serum-induced Cdc42-GTP formation by measuring Cdc42-GTP level at 10 uM incubated for 24 hrs by densitometry relative to control (reference value: 3.25); assay type: cell-based
Mus musculus [17] = organism: Mus musculus; experiment: Inhibition of RhoGEF in mouse NIH/3T3 cells assessed as inhibition of 10% calf serum-induced Rac1-GTP formation by measuring Rac1-GTP level at 10 uM incubated for 24 hrs by densitometry relative to control (reference value: 2.86); assay type: cell-based
Mus musculus [18] = organism: Mus musculus; experiment: Inhibition of RhoGEF in mouse NIH/3T3 cells assessed as inhibition of 10% calf serum-induced RhoA-GTP formation by measuring RhoA-GTP level at 30 uM incubated for 24 hrs by densitometry relative to control (reference value: 2.15); assay type: cell-based
Mus musculus [19] = organism: Mus musculus; experiment: Inhibition of RhoGEF-mediated RhoA signaling in mouse NIH/3T3 cells assessed as inhibition of serum -induced phospho-MLC formation at 10 to 30 uM incubated for 24 hrs by densitometry; assay type: cell-based
[20] = system: Rho-associated protein kinase 2 (Homo sapiens), O75116 [UNDEFINED MUTATION]; experiment: Inhibition of constitutively active ROCK2 mutant (unknown origin) expressed in mouse NIH/3T3 cells assessed as reduction in 10% calf serum-induced focal adhesion complex formation at 530 uM by anti-vinculin antibody staining based assay; assay type: cell-based
Rho-associated protein kinase 2 (Homo sapiens), O75116 [UNDEFINED MUTATION], sequence (O75116 whole entry, looked up, change not shown): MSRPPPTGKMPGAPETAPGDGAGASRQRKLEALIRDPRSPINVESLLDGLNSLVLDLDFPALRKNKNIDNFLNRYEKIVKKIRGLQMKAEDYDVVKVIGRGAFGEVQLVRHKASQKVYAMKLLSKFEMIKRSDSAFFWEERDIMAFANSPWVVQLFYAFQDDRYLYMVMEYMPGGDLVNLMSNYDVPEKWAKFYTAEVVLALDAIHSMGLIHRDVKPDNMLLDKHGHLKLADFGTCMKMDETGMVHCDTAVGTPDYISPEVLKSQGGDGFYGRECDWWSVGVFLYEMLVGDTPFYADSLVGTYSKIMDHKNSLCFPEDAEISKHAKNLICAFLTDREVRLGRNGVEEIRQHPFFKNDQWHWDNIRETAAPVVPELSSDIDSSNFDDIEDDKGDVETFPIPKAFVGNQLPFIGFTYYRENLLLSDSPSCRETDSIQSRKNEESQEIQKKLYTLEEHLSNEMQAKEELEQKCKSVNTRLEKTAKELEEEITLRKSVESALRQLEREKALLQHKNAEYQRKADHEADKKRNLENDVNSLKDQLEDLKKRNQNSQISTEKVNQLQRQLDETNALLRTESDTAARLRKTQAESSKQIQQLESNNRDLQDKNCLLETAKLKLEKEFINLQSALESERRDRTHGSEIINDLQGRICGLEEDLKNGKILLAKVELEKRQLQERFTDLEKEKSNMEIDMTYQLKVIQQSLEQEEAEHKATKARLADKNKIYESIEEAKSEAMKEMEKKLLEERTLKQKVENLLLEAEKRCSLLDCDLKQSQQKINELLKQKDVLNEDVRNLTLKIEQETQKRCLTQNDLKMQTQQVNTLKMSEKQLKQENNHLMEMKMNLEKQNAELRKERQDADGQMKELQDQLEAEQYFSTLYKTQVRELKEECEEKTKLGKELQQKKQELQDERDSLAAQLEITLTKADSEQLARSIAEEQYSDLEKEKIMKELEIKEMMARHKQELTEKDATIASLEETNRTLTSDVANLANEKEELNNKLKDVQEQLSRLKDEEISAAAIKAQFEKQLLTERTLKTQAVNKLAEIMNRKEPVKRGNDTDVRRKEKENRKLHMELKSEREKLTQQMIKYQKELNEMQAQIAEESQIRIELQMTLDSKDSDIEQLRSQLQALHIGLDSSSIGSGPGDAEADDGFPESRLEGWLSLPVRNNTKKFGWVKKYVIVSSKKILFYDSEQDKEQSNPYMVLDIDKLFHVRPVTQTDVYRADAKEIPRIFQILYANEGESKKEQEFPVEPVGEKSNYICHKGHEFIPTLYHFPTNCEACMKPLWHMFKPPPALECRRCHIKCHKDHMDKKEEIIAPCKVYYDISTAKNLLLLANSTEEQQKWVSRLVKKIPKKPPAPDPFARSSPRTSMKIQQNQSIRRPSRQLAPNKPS

Mus musculus [21] = organism: Mus musculus; experiment: Inhibition of RhoGEF-mediated Cdc42 signaling in mouse NIH/3T3 cells assessed as reduction in Bradykinin-stimulated Cdc42-mediated filopodia formation at 10 to 30 uM; assay type: cell-based
Mus musculus [22] = organism: Mus musculus; experiment: Inhibition of RhoGEF-mediated RhoA signaling in mouse NIH/3T3 cells assessed as inhibition of SDF1a-induced phospho-FAK formation at 10 to 30 uM incubated for 24 hrs by densitometry; assay type: cell-based
[23] = target: Intersectin-1 (Homo sapiens) (UniProt Q15811); experiment: Inhibition of GST-tagged human intersectin-1 (1227 to 1571 residues) RhoGEF-catalyzed guanine nucleotide-exchange reaction of human full length Cdc42 (1 to 191 residues) by measuring inhibition of the GDP dissociation from Cdc42 at 0.76 to 250000 nM by Alexa 647 fluorescence dye based GDP/GTP exchange assay
Intersectin-1 (Homo sapiens), sequence (Q15811 whole entry, the tested form may be a part): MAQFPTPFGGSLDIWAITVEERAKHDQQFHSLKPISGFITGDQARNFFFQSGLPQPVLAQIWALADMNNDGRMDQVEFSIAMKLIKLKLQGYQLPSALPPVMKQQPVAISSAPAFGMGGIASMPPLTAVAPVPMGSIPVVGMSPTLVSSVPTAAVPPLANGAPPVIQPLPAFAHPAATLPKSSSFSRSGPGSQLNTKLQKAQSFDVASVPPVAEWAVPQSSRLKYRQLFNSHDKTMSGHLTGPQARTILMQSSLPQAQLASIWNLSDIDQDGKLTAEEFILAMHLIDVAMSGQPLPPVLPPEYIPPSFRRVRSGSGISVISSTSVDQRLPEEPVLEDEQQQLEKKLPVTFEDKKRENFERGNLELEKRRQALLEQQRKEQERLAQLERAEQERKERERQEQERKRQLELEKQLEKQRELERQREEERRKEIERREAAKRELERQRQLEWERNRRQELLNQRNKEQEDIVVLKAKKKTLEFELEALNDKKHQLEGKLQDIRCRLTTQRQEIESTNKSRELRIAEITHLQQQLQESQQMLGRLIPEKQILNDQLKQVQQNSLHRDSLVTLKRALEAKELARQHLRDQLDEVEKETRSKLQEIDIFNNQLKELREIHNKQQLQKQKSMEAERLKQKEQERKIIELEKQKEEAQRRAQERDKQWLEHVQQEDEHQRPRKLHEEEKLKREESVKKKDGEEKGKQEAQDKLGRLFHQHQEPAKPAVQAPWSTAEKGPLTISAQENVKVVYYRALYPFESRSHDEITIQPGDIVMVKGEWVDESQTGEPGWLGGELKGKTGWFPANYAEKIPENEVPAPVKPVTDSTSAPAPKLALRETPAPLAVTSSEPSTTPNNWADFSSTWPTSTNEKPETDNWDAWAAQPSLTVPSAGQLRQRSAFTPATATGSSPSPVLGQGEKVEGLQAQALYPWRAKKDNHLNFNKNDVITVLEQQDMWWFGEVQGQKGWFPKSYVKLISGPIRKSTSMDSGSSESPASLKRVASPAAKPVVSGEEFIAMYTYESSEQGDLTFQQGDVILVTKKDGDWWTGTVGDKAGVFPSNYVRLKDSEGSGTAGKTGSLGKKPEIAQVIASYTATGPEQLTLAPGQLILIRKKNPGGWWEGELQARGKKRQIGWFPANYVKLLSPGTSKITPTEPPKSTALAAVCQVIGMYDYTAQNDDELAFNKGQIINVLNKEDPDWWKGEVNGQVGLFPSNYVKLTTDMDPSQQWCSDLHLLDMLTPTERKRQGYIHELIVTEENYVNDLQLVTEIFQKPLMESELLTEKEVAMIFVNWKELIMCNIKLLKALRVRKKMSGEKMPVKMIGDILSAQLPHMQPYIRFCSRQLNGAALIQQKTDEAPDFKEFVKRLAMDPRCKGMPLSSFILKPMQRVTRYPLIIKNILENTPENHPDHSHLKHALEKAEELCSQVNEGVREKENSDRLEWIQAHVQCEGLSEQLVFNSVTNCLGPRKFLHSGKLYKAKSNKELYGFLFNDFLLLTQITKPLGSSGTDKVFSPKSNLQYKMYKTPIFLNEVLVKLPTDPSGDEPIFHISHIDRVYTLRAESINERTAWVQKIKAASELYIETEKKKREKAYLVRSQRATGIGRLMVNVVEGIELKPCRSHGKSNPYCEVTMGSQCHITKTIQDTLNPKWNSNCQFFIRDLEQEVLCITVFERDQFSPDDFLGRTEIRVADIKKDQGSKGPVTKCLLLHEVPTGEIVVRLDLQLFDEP

[24] = target: Rho guanine nucleotide exchange factor 12 (Homo sapiens, UniProt Q9NZN5); experiment: Binding affinity to recombinant human LARG (765 to 1138 residues) containing DH-PH catalytic module by microscale thermophoresis analysis
Rho guanine nucleotide exchange factor 12, sequence (Q9NZN5 whole entry, the tested form may be a part): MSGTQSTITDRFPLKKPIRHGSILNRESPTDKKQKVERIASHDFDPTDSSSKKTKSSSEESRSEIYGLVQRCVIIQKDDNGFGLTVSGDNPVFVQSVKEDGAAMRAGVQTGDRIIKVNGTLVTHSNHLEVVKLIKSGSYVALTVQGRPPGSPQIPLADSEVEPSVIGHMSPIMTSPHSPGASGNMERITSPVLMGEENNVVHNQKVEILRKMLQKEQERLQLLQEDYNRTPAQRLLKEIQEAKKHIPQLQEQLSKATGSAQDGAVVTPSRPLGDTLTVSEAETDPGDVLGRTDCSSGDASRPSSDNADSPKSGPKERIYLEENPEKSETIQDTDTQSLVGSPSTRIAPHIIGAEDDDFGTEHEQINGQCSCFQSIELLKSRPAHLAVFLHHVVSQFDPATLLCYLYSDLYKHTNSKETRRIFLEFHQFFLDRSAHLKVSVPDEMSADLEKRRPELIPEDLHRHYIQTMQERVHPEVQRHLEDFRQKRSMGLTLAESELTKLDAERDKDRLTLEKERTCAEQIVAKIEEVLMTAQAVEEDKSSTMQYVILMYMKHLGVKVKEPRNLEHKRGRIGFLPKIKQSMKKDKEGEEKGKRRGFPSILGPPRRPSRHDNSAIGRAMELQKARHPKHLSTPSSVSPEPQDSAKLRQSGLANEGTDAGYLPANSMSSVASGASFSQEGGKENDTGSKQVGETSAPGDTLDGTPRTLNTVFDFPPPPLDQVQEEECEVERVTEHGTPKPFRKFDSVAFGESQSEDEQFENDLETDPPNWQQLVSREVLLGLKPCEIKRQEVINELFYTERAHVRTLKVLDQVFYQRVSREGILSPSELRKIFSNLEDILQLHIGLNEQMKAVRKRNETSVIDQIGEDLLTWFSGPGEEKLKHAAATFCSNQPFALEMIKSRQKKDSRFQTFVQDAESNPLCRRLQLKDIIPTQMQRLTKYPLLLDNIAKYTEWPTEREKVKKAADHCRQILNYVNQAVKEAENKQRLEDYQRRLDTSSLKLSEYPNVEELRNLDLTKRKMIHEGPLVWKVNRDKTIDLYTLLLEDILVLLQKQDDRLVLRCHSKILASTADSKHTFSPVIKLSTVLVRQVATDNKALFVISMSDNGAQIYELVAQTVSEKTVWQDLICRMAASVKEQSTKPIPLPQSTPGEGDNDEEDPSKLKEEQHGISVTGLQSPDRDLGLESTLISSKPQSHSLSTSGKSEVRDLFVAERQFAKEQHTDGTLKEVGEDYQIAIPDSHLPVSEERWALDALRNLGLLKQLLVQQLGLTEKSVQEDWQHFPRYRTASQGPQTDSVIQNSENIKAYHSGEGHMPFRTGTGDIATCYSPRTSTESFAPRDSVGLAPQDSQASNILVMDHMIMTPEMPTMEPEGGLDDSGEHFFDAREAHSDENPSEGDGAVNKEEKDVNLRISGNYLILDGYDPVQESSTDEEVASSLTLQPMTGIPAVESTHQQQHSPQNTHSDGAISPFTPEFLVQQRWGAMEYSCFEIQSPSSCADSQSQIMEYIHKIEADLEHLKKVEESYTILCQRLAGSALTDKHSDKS

Homo sapiens = organism: Homo sapiens; experiment: Inhibition of GST-tagged human TrioN RhoGEF (1284 to 1711 residues) expressed in mouse NIH/3T3 cells assessed as reduction in human full length Rac1 (1 to 192 residues) interaction with TrioN RhoGEF at 50 to 200 uM incubated for 1 hr by Western blot analysis based pull-down assay; assay type: cell-based
[25] = target: Triple functional domain protein (Homo sapiens, UniProt O75962); experiment: Binding affinity to GST-tagged human TrioN RhoGEF (1284 to 1711 residues) by microscale thermophoresis analysis

**Q.** With `Cc1cccc(COc2cccc(/C=C3\C(=O)NN(c4ccccc4)C3=O)c2)c1` as the molecule, how does the inhibition (MCF7 [1]) read?
**A.** Dose-dependent effect

**Q.** What about the inhibition (MCF7 [2]) of the same molecule?
**A.** 70%

**Q.** And the inhibition (MCF7 [3])?
**A.** 70%

**Q.** What about the inhibition (MCF7 [4]) of the same molecule?
**A.** Dose-dependent effect

**Q.** And the fold change (FC) (MCF7 [5])?
**A.** 0.27

**Q.** And the fold change (FC) (MCF7 [6])?
**A.** 0.15

**Q.** And the “growth inhibition (GI)” value (MCF7 [7])?
**A.** Active

**Q.** What about the fold change (FC) (Mus musculus [8]) of the same molecule?
**A.** 1.19

**Q.** And the fold change (FC) (Mus musculus [9])?
**A.** 1.25

**Q.** What about the fold change (FC) (Mus musculus [10]) of the same molecule?
**A.** 0.46

**Q.** And the fold change (FC) (Mus musculus [11])?
**A.** 0.26

**Q.** And the fold change (FC) (Mus musculus [12])?
**A.** 0.51

**Q.** What about the fold change (FC) [13] of the same molecule?
**A.** 0.57

**Q.** What about the inhibition (Mus musculus [14]) of the same molecule?
**A.** Active

**Q.** And the inhibition (Mus musculus [15])?
**A.** Active

**Q.** What about the fold change (FC) (Mus musculus [16]) of the same molecule?
**A.** 2.23

**Q.** What about the fold change (FC) (Mus musculus [17]) of the same molecule?
**A.** 1.83

**Q.** And the fold change (FC) (Mus musculus [18])?
**A.** 0.87

**Q.** And the inhibition (Mus musculus [19])?
**A.** Active

**Q.** What about the inhibition [20] of the same molecule?
**A.** inactive

**Q.** What about the inhibition (Mus musculus [21]) of the same molecule?
**A.** inactive

**Q.** What about the inhibition (Mus musculus [22]) of the same molecule?
**A.** Active

**Q.** What about the inhibition [23] of the same molecule?
**A.** inactive

**Q.** What about the Kd [24] of the same molecule?
**A.** 0.065 to 0.076 µM

**Q.** What about the inhibition (Homo sapiens) of the same molecule?
**A.** inactive

**Q.** And the Kd [25]?
**A.** 774 µM

Reference: ChEMBL document CHEMBL4419173, “Small-molecule inhibitors targeting g-protein-coupled rho guanine nucleotide exchange factors” (2014)
